Data: patent US5006546A, “Imidazole derivatives” (Rhone-Poulenc Sante, priority 1989, dated 1991)

Target: T1, acyl coenzyme-A:cholesterol-O-acyl transferase (ACAT; EC 2.3.1.26) (Rattus norvegicus, UniProt Q7TQM4)
T1 construct: microsomes obtained from the livers of rats; from tissue; host or cells: liver microsomes of rats fed 0.5% w/w cholesterol and 0.25% w/w cholic acid
T1 sequence (Q7TQM4 1-524): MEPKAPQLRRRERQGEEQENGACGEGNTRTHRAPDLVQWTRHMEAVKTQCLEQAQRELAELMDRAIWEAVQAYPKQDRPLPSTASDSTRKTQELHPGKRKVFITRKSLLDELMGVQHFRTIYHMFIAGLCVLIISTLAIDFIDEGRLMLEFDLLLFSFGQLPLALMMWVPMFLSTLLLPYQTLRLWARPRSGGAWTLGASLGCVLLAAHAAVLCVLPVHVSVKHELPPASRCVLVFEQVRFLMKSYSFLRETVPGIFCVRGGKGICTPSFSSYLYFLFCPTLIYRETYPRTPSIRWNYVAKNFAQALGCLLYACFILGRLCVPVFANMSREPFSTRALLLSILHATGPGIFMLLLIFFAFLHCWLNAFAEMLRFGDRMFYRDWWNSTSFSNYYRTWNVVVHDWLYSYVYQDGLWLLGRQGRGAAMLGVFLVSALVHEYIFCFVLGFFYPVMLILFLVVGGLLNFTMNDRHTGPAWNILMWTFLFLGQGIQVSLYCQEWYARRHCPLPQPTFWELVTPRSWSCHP
Assay: In vitro inhibition of acyl coenzyme-A:cholesterol-O-acyl transferase (ACAT) in liver microsomes of cholesterol/cholic acid-fed rats
Format: biochemical
Details: microsomes from livers of rats fed a diet containing 0.5% w/w cholesterol and 0.25% w/w cholic acid

Compound | IC50 [nM]
CO[C@@H]1C[C@H](O)C[C@@H](CSc2nc(-c3ccccc3)c(-c3ccccc3)[nH]2)O1 [(I), (2S,4R,6S)-6-[(4,5-diphenylimidazol-2-yl)thiomethyl]-4-hydroxy-2-methoxy-3,4,5,6-tetrahydro-2H-pyran] | 50
CO[C@H]1C[C@H](O)C[C@@H](CSc2nc(-c3ccccc3)c(-c3ccccc3)[nH]2)O1 [(II), (2R,4R,6S)-6-[(4,5-diphenylimidazol-2-yl)thiomethyl]-4-hydroxy-2-methoxy-3,4,5,6-tetrahydro-2H-pyran] | 91
